Results from PubChem BioAssay (NCI).
“And” between values parts separate entries of the source, which are not always exact repeats. Equal values may be shown once.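 Test compounds were applied to cells in 96-well plates for 48 hours at 5 doses. GI50 is the concentration that inhibits growth by half. The concentration for full growth arrest is given as TGI.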

Tests used:
Assay in all cases: NCI tumour cell line growth inhibition, 48 h
SK-MEL-28 melanoma = test system: SK-MEL-28 melanoma
OVCAR-3 ovarian = test system: OVCAR-3 ovarian
CCRF-CEM leukemia = test system: CCRF-CEM leukemia
HCT-116 colon = test system: HCT-116 colon
NCI-H460 lung = test system: NCI-H460 lung
RPMI-8226 leukemia = test system: RPMI-8226 leukemia
SK-MEL-2 melanoma = test system: SK-MEL-2 melanoma
RXF 393 renal = test system: RXF 393 renal
KM12 colon = test system: KM12 colon
IGROV1 ovarian = test system: IGROV1 ovarian
ACHN renal = test system: ACHN renal
UACC-257 melanoma = test system: UACC-257 melanoma
SN12C renal = test system: SN12C renal
SNB-19 CNS = test system: SNB-19 CNS
SNB-75 CNS = test system: SNB-75 CNS
TK-10 renal = test system: TK-10 renal
SK-OV-3 ovarian = test system: SK-OV-3 ovarian
HT29 colon = test system: HT29 colon
MALME-3M melanoma = test system: MALME-3M melanoma
HCC-2998 colon = test system: HCC-2998 colon
KM20L2 colon = test system: KM20L2 colon
SF-268 CNS = test system: SF-268 CNS
DMS 114 small cell lung = test system: DMS 114 small cell lung
SF-295 CNS = test system: SF-295 CNS
OVCAR-4 ovarian = test system: OVCAR-4 ovarian
CAKI-1 renal = test system: CAKI-1 renal
786-0 renal = test system: 786-0 renal
UACC-62 melanoma = test system: UACC-62 melanoma
NCI-H23 lung = test system: NCI-H23 lung
A498 renal = test system: A498 renal
DMS 273 small cell lung = test system: DMS 273 small cell lung
SW-620 colon = test system: SW-620 colon
OVCAR-8 ovarian = test system: OVCAR-8 ovarian
XF 498 CNS = test system: XF 498 CNS
HOP-62 NSCLC = test system: HOP-62 NSCLC
RXF-631 renal = test system: RXF-631 renal
DLD-1 colon = test system: DLD-1 colon
OVCAR-5 ovarian = test system: OVCAR-5 ovarian
A549 NSCLC = test system: A549 NSCLC
SNB-78 CNS = test system: SNB-78 CNS
LXFL 529 NSCLC = test system: LXFL 529 NSCLC
COLO 205 colon = test system: COLO 205 colon
K-562 leukemia = test system: K-562 leukemia
U251 CNS = test system: U251 CNS
LOX IMVI melanoma = test system: LOX IMVI melanoma
SF-539 CNS = test system: SF-539 CNS
HL-60(TB) leukemia = test system: HL-60(TB) leukemia
M14 melanoma = test system: M14 melanoma
UO-31 renal = test system: UO-31 renal
HCT-15 colon = test system: HCT-15 colon
HOP-92 NSCLC = test system: HOP-92 NSCLC
NCI-H522 lung = test system: NCI-H522 lung
MOLT-4 leukemia = test system: MOLT-4 leukemia
NCI-H226 lung = test system: NCI-H226 lung
M19-MEL melanoma = test system: M19-MEL melanoma
SK-MEL-5 melanoma = test system: SK-MEL-5 melanoma
DU-145 prostate = test system: DU-145 prostate
MDA-MB-231 breast = test system: MDA-MB-231 breast
HOP-18 NSCLC = test system: HOP-18 NSCLC
MDA-MB-435 = test system: MDA-MB-435
T-47D breast = test system: T-47D breast
BT-549 breast = test system: BT-549 breast
P388/ADR leukemia = test system: P388/ADR leukemia
SR leukemia = test system: SR leukemia
P388 leukemia = test system: P388 leukemia
MDA-N = test system: MDA-N
PC-3 prostate = test system: PC-3 prostate

CCc1cccc(C)c1NC(=O)CCc1nnc2s/c(=C\c3cccc4ccccc34)c(=O)n12
TGI (SK-MEL-28 melanoma): > 100000 nM
TGI (OVCAR-3 ovarian): > 100000 nM
TGI (CCRF-CEM leukemia): > 100000 nM
TGI (HCT-116 colon): > 100000 nM
TGI (NCI-H460 lung): > 100000 nM
TGI (RPMI-8226 leukemia): > 100000 nM
TGI (SK-MEL-2 melanoma): > 100000 nM
TGI (RXF 393 renal): > 100000 nM
TGI (KM12 colon): > 100000 nM
TGI (IGROV1 ovarian): > 100000 nM
TGI (ACHN renal): > 100000 nM
TGI (UACC-257 melanoma): > 100000 nM
TGI (SN12C renal): > 100000 nM
TGI (SNB-19 CNS): > 100000 nM
TGI (SNB-75 CNS): > 100000 nM
TGI (TK-10 renal): > 100000 nM
TGI (SK-OV-3 ovarian): > 100000 nM
TGI (HT29 colon): > 100000 nM
TGI (MALME-3M melanoma): > 100000 nM
TGI (HCC-2998 colon): > 100000 nM
TGI (KM20L2 colon): > 100000 nM
TGI (SF-268 CNS): > 100000 nM
TGI (DMS 114 small cell lung): > 100000 nM
TGI (SF-295 CNS): > 100000 nM
TGI (OVCAR-4 ovarian): > 100000 nM
TGI (CAKI-1 renal): > 100000 nM
TGI (786-0 renal): > 100000 nM
TGI (UACC-62 melanoma): > 100000 nM
TGI (NCI-H23 lung): > 100000 nM
TGI (A498 renal): > 100000 nM
TGI (DMS 273 small cell lung): > 100000 nM
TGI (SW-620 colon): > 100000 nM
TGI (OVCAR-8 ovarian): > 100000 nM
TGI (XF 498 CNS): > 100000 nM
TGI (HOP-62 NSCLC): > 100000 nM
TGI (RXF-631 renal): > 100000 nM
TGI (DLD-1 colon): > 100000 nM
TGI (OVCAR-5 ovarian): > 100000 nM
TGI (A549 NSCLC): > 100000 nM
TGI (SNB-78 CNS): > 100000 nM
TGI (LXFL 529 NSCLC): > 100000 nM
TGI (COLO 205 colon): > 100000 nM
TGI (K-562 leukemia): > 100000 nM
TGI (U251 CNS): > 100000 nM
TGI (LOX IMVI melanoma): > 100000 nM
TGI (SF-539 CNS): > 100000 nM
TGI (HL-60(TB) leukemia): > 100000 nM
TGI (M14 melanoma): > 100000 nM
TGI (UO-31 renal): > 100000 nM
TGI (HCT-15 colon): > 100000 nM
TGI (HOP-92 NSCLC): > 100000 nM
TGI (NCI-H522 lung): > 100000 nM
TGI (MOLT-4 leukemia): > 100000 nM
TGI (NCI-H226 lung): > 100000 nM
TGI (M19-MEL melanoma): > 100000 nM
TGI (SK-MEL-5 melanoma): > 100000 nM

C[C@@H]1O[C@@H](O[C@H]2CC[C@]3(C=O)[C@H]4CC[C@]5(C)[C@@H](c6ccc(=O)oc6)CC[C@]5(O)[C@@H]4CC[C@]3(O)C2)[C@H](O)[C@H](O)[C@H]1O[C@@H]1O[C@H](CO)[C@@H](O)[C@H](O)[C@H]1O
GI50 (DU-145 prostate): 12.9 nM
TGI (DU-145 prostate): 8.37 nM and 42.4 nM
TGI (HCT-116 colon): 35.8 nM and 19.4 nM
TGI (ACHN renal): 19.5 nM and 23.3 nM
TGI (MDA-MB-231 breast): 129 nM
TGI (HOP-18 NSCLC): 21.9 nM
GI50 (SNB-19 CNS): 30.1 nM and 37.5 nM
TGI (SNB-19 CNS): 141 nM and 118 nM and 64.3 nM
GI50 (TK-10 renal): 13.2 nM
TGI (TK-10 renal): 16 nM and 56.9 nM
GI50 (MDA-MB-435): 26.1 nM
TGI (MDA-MB-435): 34.4 nM and 62 nM
GI50 (T-47D breast): 24 nM
TGI (T-47D breast): 46.5 nM and 56.4 nM
GI50 (MALME-3M melanoma): 14.2 nM and 20.6 nM
TGI (MALME-3M melanoma): 34.3 nM and 47.7 nM
GI50 (BT-549 breast): 25.2 nM
TGI (BT-549 breast): 28.5 nM and 70.1 nM
GI50 (DMS 114 small cell lung): < 0.000375 nM
GI50 (CAKI-1 renal): 37.5 nM
TGI (CAKI-1 renal): 32.2 nM and 25.1 nM and 37.9 nM
TGI (786-0 renal): 16.4 nM and 17.4 nM
GI50 (NCI-H23 lung): < 0.000375 nM
TGI (P388/ADR leukemia): 355000 nM
TGI (SR leukemia): 868 nM
TGI (P388 leukemia): 176000 nM
TGI (SF-539 CNS): 21 nM and 24.5 nM
GI50 (M14 melanoma): 30.4 nM
TGI (M14 melanoma): 48.3 nM and 125 nM
GI50 (UO-31 renal): 37.5 nM
TGI (UO-31 renal): 51.2 nM and 47.9 nM
TGI (MOLT-4 leukemia): 14.4 nM and 70.8 nM
GI50 (MDA-N): 17.3 nM
TGI (MDA-N): 59.5 nM and 33.3 nM
GI50 (NCI-H226 lung): 40.9 nM
TGI (NCI-H226 lung): 57.6 nM and 43.7 nM and 93.3 nM
GI50 (PC-3 prostate): 17.8 nM
TGI (PC-3 prostate): 28.5 nM and 33.6 nM
